Assay results reported in US5445951A, “Regioselective enzymatic deacylation of sucrose esters in anhydrous organic media” (priority 1993, dated 1995).

Key:
[1] = n-octanol/water; from Laane et al.; cited from earlier work
lipase AY 30 [2] = assay: Effect of the solvent on lipase AY 30 catalyzed deacylation of SOP; assay type: biochemical, Candida cylindracea; conditions: for ShexaP (4.2 min) / SheptaP's (8.9 min) / SheptaP's (9.4 min) / SheptaP's ([…]): lipase AY 30, 24 hrs; for ShexaP (4.2 min): HPLC peak 4.2 min; for SheptaP's (8.9 min): HPLC peak 8.9 min; for SheptaP's (9.4 min): HPLC peak 9.4 min; for SheptaP's ([…]): HPLC peak […]; for SOA: lipase AY 30, solvent as labelled, 200 mM butanol, 24 hrs, peak 21.4 min; for SheptaP's ([…]): HPLC peak 8.2 min
Protocol: Identical SOP deacylations were performed with lipase AY 30 or protease type XXIII in numerous anhydrous organic solvents, as shown in Tables 12 and 13.
(§1) Solvent screening for SOP deacylation. A scintillation vial was charged successively with 100 mg of lipase AY 30 or protease type XXIII as described and 1.0 ml of 20 mM sucrose octapropionate (SOP) and 200mM butanol dissolved in an organic solvent. Following a 5 sec sonication, the vial was incubated in a controlled-temperature shaker at 45° C. and 300 RPM for 24 hrs. A 200 μl aliquot of the reaction mixture was withdrawn and centrifuged. The supernatant was collected and evaporated under a stream of N2. The residue was reconstituted in 200 μl of acetonitrile and 10 μl of this solution was analyzed by HPLC.

lipase AY 30 [3] = assay: Effect of the solvent on lipase AY 30 SOA deacetylation; assay type: biochemical, Candida cylindracea; conditions: lipase AY 30, solvent as labelled, 24 hrs
Protocol: (§2) Identical enzyme catalyzed SOA deacetylations were run in numerous anhydrous solvents. After 24 hrs incubation an aliquot was analyzed by HPLC.
as §1, with “Enzyme and Solvent” for “Solvent”, “Screening” for “screening”, “SOA Deacetylation.” for “SOP deacylation.”, “powdered enzyme as received” for “lipase AY 30”, “prepared” for “protease type XXIII”, “octaacetate (SOA)” for “octapropionate (SOP) and 200mM butanol”

lipase AP 12 = assay: Solvent effect on lipase AP 12 catalyzed deacetylation of SOA; assay type: biochemical, Aspergillus niger; conditions: lipase AP 12, solvent as labelled, 24 hrs
Protocol: as §2
(§3) The pH of commercial powdered enzymes was adjusted in the following way: The enzyme (3 g) was dissolved in 25 ml of an appropriate buffer and the pH adjusted with dilute NaOH or citric/phosphoric acid solution. Cold acetone (37.5 ml at -20° C.) was added and the precipitate collected on a medium porosity glass funnel and dried overnight at 2 millitorr. The protein pellet was ground to a fine powder and equilibrated at 4° C. over saturated aqueous potassium carbonate (RH: 43%) for 24 hrs.
as §1, with “Enzyme and Solvent” for “Solvent”, “Screening” for “screening”, “SOA Deacetylation.” for “SOP deacylation.”, “powdered enzyme as received” for “lipase AY 30”, “prepared” for “protease type XXIII”, “octaacetate (SOA)” for “octapropionate (SOP) and 200mM butanol”

[4] = test system: lipase AY 30 deposited on Hyflo Super Cell; assay: Solvent effect on lipase AY 30 deposited on Hyflo Super Cell catalyzed deacetylation of SOA; assay type: biochemical, Candida cylindracea; conditions: immobilized lipase AY 30, 24 hrs
Protocol: (§4) Alcalase and lipase AY 30 were deposited on Hyflo Super Cell and used as catalysts for SOA deacetylation reactions in several anhydrous solvents.
(§5) Enzyme immobilization. The pH of a solution of 900 mg of buffered alcalase in 18 ml of water was adjusted to 9.0 with dilute NaOH. Hyflo super cell (6 g) was added and the slurry thoroughly mixed. […] Lipase AY 30 was immobilized in the same manner except that the protein solution was adjusted to pH 7.0 with sodium phosphate.
as §1, with “Enzyme and Solvent” for “Solvent”, “Screening” for “screening”, “SOA Deacetylation.” for “SOP deacylation.”, “powdered enzyme as received” for “lipase AY 30”, “prepared” for “protease type XXIII”, “octaacetate (SOA)” for “octapropionate (SOP) and 200mM butanol”

alcalase = biological target: T1, alcalase (Bacillus licheniformis, UniProt P00780); assay: Solvent effect on alcalase catalyzed deacetylation of SOA; assay type: biochemical; conditions: 24 hrs; for SheptaA: total of 1'-OH and 6'-OH heptaacetates; for SOA / ShexaA: solvent as labelled
T1 construct: purchased Novo Nordisk (gift)
T1 sequence (P00780 106-379): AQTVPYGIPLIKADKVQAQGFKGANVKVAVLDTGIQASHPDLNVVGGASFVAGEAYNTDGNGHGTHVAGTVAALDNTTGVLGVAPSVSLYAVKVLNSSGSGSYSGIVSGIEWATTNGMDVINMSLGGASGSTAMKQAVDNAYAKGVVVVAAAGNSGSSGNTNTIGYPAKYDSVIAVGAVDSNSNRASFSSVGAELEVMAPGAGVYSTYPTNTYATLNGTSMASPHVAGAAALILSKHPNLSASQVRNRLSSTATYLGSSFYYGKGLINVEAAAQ
Protocol: as §2
Enzyme Precipitation. Alcalase was prepared by adding 37.5 ml cold acetone (-20° C.) to 25 ml of alcalase solution as supplied by Novo. The aqueous acetone was decanted and the residue dissolved in 25 ml of pH 9.0 glycine--NaOH buffer. The pH of this solution was adjusted to 9.0 with a few drops of dilute NaOH solution. Cold acetone (37.5 ml at -20° C.) was added to the buffered alcalase solution and the precipitate collected by filtration on a medium porosity glass funnel and dried overnight at 2 millitorr. The resulting pellet was ground to a fine powder and stored at 4° C. over saturated aqueous potassium carbonate (RH: 43%) for 24 hrs.
as §1, with “Enzyme and Solvent” for “Solvent”, “Screening” for “screening”, “SOA Deacetylation.” for “SOP deacylation.”, “powdered enzyme as received” for “lipase AY 30”, “prepared” for “protease type XXIII”, “octaacetate (SOA)” for “octapropionate (SOP) and 200mM butanol”

[5] = test system: alcalase deposited on Hyflo Super Cell; assay: Solvent effect on alcalase deposited on Hyflo Super Cell catalyzed deacetylation of SOA; assay type: biochemical, Bacillus licheniformis; conditions: immobilized alcalase, 4 hour incubation; for SheptaA: total of 1'-OH and 6'-OH heptaacetates
Protocol: as §4, §5
Enzyme and Solvent Screening for SOA Deacetylation. A scintillation vial was charged successively with 100 mg of powdered enzyme as received or prepared as described and 1.0 ml of 20 mM sucrose octaacetate (SOA) dissolved in an organic solvent. […] A 200 μl aliquot of the reaction mixture was withdrawn and centrifuged. The supernatant was collected and evaporated under a stream of N2. The residue was reconstituted in 200 μl of acetonitrile and 10 μl of this solution was analyzed by HPLC.

proleather = assay: Solvent effect on proleather catalyzed deacetylation of SOA; assay type: biochemical, Bacillus subtilis; conditions: 24 hrs
Protocol: as §2, §3
Enzyme and Solvent Screening for SOA Deacetylation. A scintillation vial was charged successively with 100 mg of powdered enzyme as received or prepared as described and 1.0 ml of 20 mM sucrose octaacetate (SOA) dissolved in an organic solvent. Following a 5 sec sonication, the vial was incubated in a controlled-temperature shaker at 45° C. and 300 RPM for 24 hrs. A 200 μl aliquot of the reaction mixture was withdrawn and centrifuged. The supernatant was collected and evaporated under a stream of N2. The residue was reconstituted in 200 μl of acetonitrile and 10 μl of this solution was analyzed by HPLC.

ShexaP (4.2 min) (lipase AY 30 [2]) [%] | SheptaP's (8.9 min) (lipase AY 30 [2]) [%] | SheptaP's (9.4 min) (lipase AY 30 [2]) [%] | SheptaP's ([…]) (lipase AY 30 [2]) [%] | SOA (lipase AY 30 [2]) [%] | SMILES | log P [1] | SOA (lipase AY 30 [3]) [%] | SheptaA (lipase AY 30 [3]) [%] | ShexaA (lipase AY 30 [3]) [%] | further results
 |  |  |  |  | CCCCCOCCCCC [dipentyl ether] | 3.9 |  |  |  | 
6.6 | 0.5 | 4.4 | 8.9 | 79.6 | CCCCCCC [heptane] | 4.0 |  |  |  | 
 |  |  |  |  | ClC(Cl)Cl [chloroform] |  | 86.7 | 11.6 | 1.7 | 
 |  |  |  |  | CCCCOCC [butyl ethyl ether] | 1.9 | 73.9 | 21.4 | 4.7 | SOA (lipase AP 12): 81.6%; SheptaA (lipase AP 12): 16.3%; ShexaA (lipase AP 12): 2.1%; SOA [4]: 96.0%; SheptaA [4]: 4.0%; SheptaA (alcalase): 16.9%; SOA (alcalase): 81.4%; ShexaA (alcalase): 1.7%; SOA [5]: 97.8%; ShexaA [5]: 0%; SheptaA [5]: 2.2%
0 | 0.8 | 2.9 | 3.3 | 93.0 | CCCCC(=O)CC [3-heptanone] | 1.8 | 85.1 | 14.9 |  | 
 |  |  |  |  | c1ccccc1 [benzene] |  | 97.9 | 1.7 | 0.4 | SOA (lipase AP 12): 96.6%; SheptaA (lipase AP 12): 3.4%; ShexaA (lipase AP 12): 0%; SOA [4]: 97.9%; SheptaA [4]: 2.1%; SheptaA (proleather; total of 1'-OH and 6'-OH heptaacetates): 13.9%; SOA (proleather; solvent as labelled): 84.8%; ShexaA (proleather; solvent as labelled): 1.4%; SheptaA (alcalase): 6.7%; SOA (alcalase): 93.3%; ShexaA (alcalase): 0%; SOA [5]: 97.9%; ShexaA [5]: 0%; SheptaA [5]: 2.1%
0 | 0 | 0.7 | 1.4 | 97.9 | CCCCCCCO [heptanol] | 2.5 | 93.4 | 6.0 | 0.6 | 

SMILES | ShexaP (4.2 min) (lipase AY 30 [2]) [%] | SheptaP's (8.9 min) (lipase AY 30 [2]) [%] | SheptaP's (9.4 min) (lipase AY 30 [2]) [%] | SheptaP's ([…]) (lipase AY 30 [2]) [%] | SOA (lipase AY 30 [2]) [%] | log P [1] | SOA (lipase AY 30 [3]) [%] | SheptaA (lipase AY 30 [3]) [%] | ShexaA (lipase AY 30 [3]) [%] | further results
C1CCCCC1 [cyclohexane] | 2.8 | 0.4 | 5.2 | 5.6 | 86 |  |  |  |  | 
O=C1CCCCC1 [cyclohexanone] | 0 | 0 | 0.3 | 0.9 | 98.8 | 0.96 | 97.5 | 2.5 | 0 | 
